How the values were obtained:
Assay type in all cases: cell-based
E. coli DH5α = test: Antibacterial activity: MIC and growth curve against E. coli DH5α in 96-well plate; conditions: minimal inhibitory concentration against E. coli DH5α; 96-well plate, 5×10^5 CFU/mL, 37° C., judged after 8 h
Summary of the method: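 Log-phase DH5α (OD600 about 0.5, 37° C, 185 rpm in LB) was pelleted, resuspended in fresh LB and seeded at 5×10^5 CFU/mL with recombinant protein at 50, 25 and 12.5 μg/mL (two-fold series), in triplicate. Plates were shaken at 175 rpm, 37° C, and OD600 was read every 30 min. MIC was the lowest concentration with no growth.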

Proteus vulgaris = test: MIC against Gram-negative bacteria: Proteus vulgaris; conditions: 5×10^5 CFU/mL
Summary of the method: (§1)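 Bacteria grown in LB at 37° C to McFarland 0.5, resuspended and seeded at 5×10^5 CFU/mL in 96-well plates. Purified human EGF-domain proteins two-fold serially diluted, triplicate wells; cultured at 37° C, shaking 175 rpm. MIC = lowest protein concentration with no growth.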

Serratia marcescens = test: MIC against Gram-negative bacteria: Serratia marcescens; conditions: 5×10^5 CFU/mL
Summary of the method: as §1

Citrobacter diversus = test: MIC against Gram-negative bacteria: Citrobacter diversus; conditions: 5×10^5 CFU/mL
Summary of the method: as §1

Klebsiella pneumonia = test: MIC against Gram-negative bacteria: Klebsiella pneumonia; conditions: 5×10^5 CFU/mL
Summary of the method: as §1

Moraxella catarrhalis = test: MIC against Gram-negative bacteria: Moraxella catarrhalis; conditions: 5×10^5 CFU/mL
Summary of the method: as §1

Proteus mirabilis = test: MIC against Gram-negative bacteria: Proteus mirabilis; conditions: 5×10^5 CFU/mL
Summary of the method: as §1

E. coli BL21 = test: MIC against Gram-negative bacteria: E. coli BL21; conditions: 5×10^5 CFU/mL
Summary of the method: as §1

Aeromonas hydrophila = test: MIC against Gram-negative bacteria: Aeromonas hydrophila; conditions: 5×10^5 CFU/mL
Summary of the method: as §1

Pseudomonas aeruginosa = test: MIC against Gram-negative bacteria: Pseudomonas aeruginosa; conditions: 5×10^5 CFU/mL
Summary of the method: as §1

Enterobacter cloacae = test: MIC against Gram-negative bacteria: Enterobacter cloacae; conditions: 5×10^5 CFU/mL
Summary of the method: as §1

[1] = 10 h cultivation at 37° C., two-fold serial dilution

PRT455 (DVNECSQENGGCLQICHNKPGSFHCSCHSGFELSSDGRTCQ; listed as Homo sapiens)
MIC (E. coli DH5α): 50 µg/mL
MIC against P. vulgaris (Proteus vulgaris; 96-well plate, 37° C., 10 h): 100 µg/mL
MIC against S. marcescens (Serratia marcescens; 96-well plate, 37° C., 10 h): 50 µg/mL
MIC against C. diversus (Citrobacter diversus; 96-well plate, 37° C., 10 h): 50 µg/mL
MIC against K. pneumonia (Klebsiella pneumonia; 96-well plate, 37° C., 10 h): 12.5 µg/mL
MIC against M. catarrhalis (Moraxella catarrhalis; 96-well plate, 37° C., 10 h): 12.5 µg/mL
MIC against P. mirabilis (Proteus mirabilis; 96-well plate, 37° C., 10 h): 50 µg/mL
MIC against E. coli BL21 (E. coli BL21; 96-well plate, 37° C., 10 h): 12.5 µg/mL
MIC against A. hydrophila (Aeromonas hydrophila; 96-well plate, 37° C., 10 h): 12.5 µg/mL
MIC against P. aeruginosa (Pseudomonas aeruginosa; 96-well plate, 37° C., 10 h): 50 µg/mL
MIC against E. cloacae (Enterobacter cloacae; 96-well plate, 37° C., 10 h): 50 µg/mL

PRT1136 (KQQFCQESLSSEFCSGHGKCLSEAWSKTYSCHCQPPFSGKYCQ; listed as Homo sapiens)
MIC (E. coli DH5α): 50 µg/mL
MIC P. vulgaris (Proteus vulgaris; [1]): 50 µg/mL
MIC S. marcescens (Serratia marcescens; [1]): 12.5 µg/mL
MIC C. diversus (Citrobacter diversus; [1]): 50 µg/mL
MIC K. pneumonia (Klebsiella pneumonia; [1]): 12.5 µg/mL
MIC M. catarrhalis (Moraxella catarrhalis; [1]): 12.5 µg/mL
MIC P. mirabilis (Proteus mirabilis; [1]): 25 µg/mL
MIC E. coli BL21 (E. coli BL21; [1]): 12.5 µg/mL
MIC A. hydrophila (Aeromonas hydrophila; [1]): 12.5 µg/mL
MIC P. aeruginosa (Pseudomonas aeruginosa; [1]): 50 µg/mL
MIC E. cloacae (Enterobacter cloacae; [1]): 50 µg/mL

PRT693 (SSGMCQRNPQVCGPGRCISRPSGYTCACDSGFRLSPQGTRCI; listed as Homo sapiens)
MIC (E. coli DH5α): 25 µg/mL
MIC P. vulgaris (Proteus vulgaris; 96-well plate, 37° C., 10 h): 50 µg/mL
MIC S. marcescens (Serratia marcescens; 96-well plate, 37° C., 10 h): 50 µg/mL
MIC C. diversus (Citrobacter diversus; 96-well plate, 37° C., 10 h): 50 µg/mL
MIC K. pneumonia (Klebsiella pneumonia; 96-well plate, 37° C., 10 h): 25 µg/mL
MIC M. catarrhalis (Moraxella catarrhalis; 96-well plate, 37° C., 10 h): 12.5 µg/mL
MIC P. mirabilis (Proteus mirabilis; 96-well plate, 37° C., 10 h): 25 µg/mL
MIC E. coli BL21 (E. coli BL21; 96-well plate, 37° C., 10 h): 12.5 µg/mL
MIC A. hydrophila (Aeromonas hydrophila; 96-well plate, 37° C., 10 h): 25 µg/mL
MIC P. aeruginosa (Pseudomonas aeruginosa; 96-well plate, 37° C., 10 h): 50 µg/mL
MIC E. cloacae (Enterobacter cloacae; 96-well plate, 37° C., 10 h): 12.5 µg/mL

PRT801 (FGYGCQQLCECMNNSTCDHVTGTCYCSPGFKGIRCD; listed as Homo sapiens)
MIC (E. coli DH5α): 25 µg/mL
MIC (μg/mL) P. vulgaris (Proteus vulgaris; 10 h cultivation at 37° C.): 12.5 µg/mL
MIC (μg/mL) S. marcescens (Serratia marcescens; 10 h cultivation at 37° C.): 12.5 µg/mL
MIC (μg/mL) C. diversus (Citrobacter diversus; 10 h cultivation at 37° C.): 12.5 µg/mL
MIC (μg/mL) K. pneumonia (Klebsiella pneumonia; 10 h cultivation at 37° C.): 25 µg/mL
MIC (μg/mL) M. catarrhalis (Moraxella catarrhalis; 10 h cultivation at 37° C.): 12.5 µg/mL
MIC (μg/mL) P. mirabilis (Proteus mirabilis; 10 h cultivation at 37° C.): 12.5 µg/mL
MIC (μg/mL) E. coli BL21 (E. coli BL21; 10 h cultivation at 37° C.): 12.5 µg/mL
MIC (μg/mL) A. hydrophila (Aeromonas hydrophila; 10 h cultivation at 37° C.): 25 µg/mL
MIC (μg/mL) P. aeruginosa (Pseudomonas aeruginosa; 10 h cultivation at 37° C.): 50 µg/mL
MIC (μg/mL) E. cloacae (Enterobacter cloacae; 10 h cultivation at 37° C.): 12.5 µg/mL

PRT202 (KSTNCSSKCKGHAVCDHELQCQCEEGWIPPDCD; listed as Homo sapiens)
MIC (E. coli DH5α): 25 µg/mL
MIC (μg/mL) P. vulgaris (Proteus vulgaris; 10 h cultivation at 37° C.): 12.5 µg/mL
MIC (μg/mL) S. marcescens (Serratia marcescens; 10 h cultivation at 37° C.): 25 µg/mL
MIC (μg/mL) C. diversus (Citrobacter diversus; 10 h cultivation at 37° C.): 12.5 µg/mL
MIC (μg/mL) K. pneumonia (Klebsiella pneumonia; 10 h cultivation at 37° C.): 12.5 µg/mL
MIC (μg/mL) M. catarrhalis (Moraxella catarrhalis; 10 h cultivation at 37° C.): 12.5 µg/mL
MIC (μg/mL) P. mirabilis (Proteus mirabilis; 10 h cultivation at 37° C.): 25 µg/mL
MIC (μg/mL) E. coli BL21 (E. coli BL21; 10 h cultivation at 37° C.): 12.5 µg/mL
MIC (μg/mL) A. hydrophila (Aeromonas hydrophila; 10 h cultivation at 37° C.): 12.5 µg/mL
MIC (μg/mL) P. aeruginosa (Pseudomonas aeruginosa; 10 h cultivation at 37° C.): 12.5 µg/mL
MIC (μg/mL) E. cloacae (Enterobacter cloacae; 10 h cultivation at 37° C.): 12.5 µg/mL

PRT501 (CGCNPVGSASDEPCTGPCVCKENVEGKACDRCKPGFYNLKEKNPRGCSE; listed as Homo sapiens)
MIC (E. coli DH5α): 12.5 µg/mL
MIC against P. vulgaris (Proteus vulgaris; 96-well plate, 37° C., 10 h): 25 µg/mL
MIC against S. marcescens (Serratia marcescens; 96-well plate, 37° C., 10 h): 12.5 µg/mL
MIC against C. diversus (Citrobacter diversus; 96-well plate, 37° C., 10 h): 12.5 µg/mL
MIC against K. pneumonia (Klebsiella pneumonia; 96-well plate, 37° C., 10 h): 25 µg/mL
MIC against M. catarrhalis (Moraxella catarrhalis; 96-well plate, 37° C., 10 h): 25 µg/mL
MIC against P. mirabilis (Proteus mirabilis; 96-well plate, 37° C., 10 h): 12.5 µg/mL
MIC against E. coli BL21 (E. coli BL21; 96-well plate, 37° C., 10 h): 25 µg/mL
MIC against A. hydrophila (Aeromonas hydrophila; 96-well plate, 37° C., 10 h): 25 µg/mL
MIC against P. aeruginosa (Pseudomonas aeruginosa; 96-well plate, 37° C., 10 h): 50 µg/mL
MIC against E. cloacae (Enterobacter cloacae; 96-well plate, 37° C., 10 h): 12.5 µg/mL

PRT786 (YGKDCALICQCQNGADCDHISGQCTCRTGFMGRHCE; listed as Homo sapiens)
MIC (E. coli DH5α): 50 µg/mL
MIC (μg/mL) P. vulgaris (Proteus vulgaris; 10 h cultivation at 37° C.): 12.5 µg/mL
MIC (μg/mL) S. marcescens (Serratia marcescens; 10 h cultivation at 37° C.): 12.5 µg/mL
MIC (μg/mL) C. diversus (Citrobacter diversus; 10 h cultivation at 37° C.): 25 µg/mL
MIC (μg/mL) K. pneumonia (Klebsiella pneumonia; 10 h cultivation at 37° C.): 50 µg/mL
MIC (μg/mL) M. catarrhalis (Moraxella catarrhalis; 10 h cultivation at 37° C.): 12.5 µg/mL
MIC (μg/mL) P. mirabilis (Proteus mirabilis; 10 h cultivation at 37° C.): 25 µg/mL
MIC (μg/mL) E. coli BL21 (E. coli BL21; 10 h cultivation at 37° C.): 25 µg/mL
MIC (μg/mL) A. hydrophila (Aeromonas hydrophila; 10 h cultivation at 37° C.): 12.5 µg/mL
MIC (μg/mL) P. aeruginosa (Pseudomonas aeruginosa; 10 h cultivation at 37° C.): 12.5 µg/mL
MIC (μg/mL) E. cloacae (Enterobacter cloacae; 10 h cultivation at 37° C.): 12.5 µg/mL
